Measured values published in patent publication US20140286904A1, “ANITMICROBIAL PEPTIDE PRODUCED BY INTESTINAL LACTOBACILLUS SALIVARIUS” (AGRICULTURE AND FOOD DEVELOPMENT AUTHORITY (TEAGASC), priority 2011, published 2014).
In brackets after ≈: the same amount, converted by molar mass. Positions of bridges follow the written chain, without caps; N, C: chain ends. Residues, ends and D or L forms follow the SMILES beside them. No end group written: not given here.

What was measured:
E. coli strains = details: broth-based MIC50 assay
S. aureus DPC5246 = details: BHI broth, 37° C., 24 h, OD590
[1] = tested on: L. monocytogenes NCTC 11994; details: BHI broth, 37° C., 24 h, OD590
Listeria = experiment: antimicrobial activity of purified peptide (FIG. 1); assay type: cell-based
Description: (§1) The antimicrobial peptide was purified from a 0.5 L overnight culture of L. salivarius DPC6502 grown in MRS-IM-G media. The cells were removed by centrifugation at 8,000×g for 15 min, and the supernatant applied to a column containing 10 ml SP sepharose Fast flow cation-exchange resin (GE Healthcare, UK) previously equilibrated with 50 mM sodium acetate buffer, pH 4.5. The column was washed with 50 mM sodium acetate buffer, pH 4.5 containing 0.3 M NaCl, the bioactive peptide was subsequently eluted from the column using 50 mM sodium acetate buffer, pH 4.5 containing 1.0 M NaCl. The eluate was applied to a 2.0 g (12 ml volume) C18 Bond Elute column (Phenomenex, Cheshire, UK) pre-equilibrated with methanol and water. […] The column was pre-equilibrated with 10% acetonitrile containing 0.1% (vol/vol) TFA, followed by separation and elution of the bioactive peptide by gradient RP-HPLC using 0.1% (vol/vol) TFA and acetonitrile concentrations that ranged from 10% to 30% (vol/vol), from 5 to 45 min at a flow rate of 1.0 ml min^−1 Absorbance was monitored at a wavelength of 214 nm. Antimicrobial peptide activity was monitored throughout the purification procedure by well diffusion assay using the sensitive indicator strain L. delbrueckii subsp. bulgaricus LMG6901. […]

L. salivarius UCC118 = experiment: inhibition of strains closely related to the producer; assay type: cell-based, Lactobacillus salivarius
Staphylococcus aureus = experiment: antimicrobial activity of purified peptide (FIG. 1); assay type: cell-based
[2] = tested on: L. delbrueckii subsp. bulgaricus; experiment: antimicrobial activity of purified peptide (well diffusion, FIG. 1); assay type: cell-based, Lactobacillus delbrueckii subsp. bulgaricus
Description: as §1

[3] = tested on: bovine mastitis isolate S. aureus DPC5245; details: cited from earlier work

## CSCC[C@H](NC(=O)CNC(=O)[C@@H](NC(=O)[C@@H]1CCCN1C(=O)[C@H](CCSC)NC(=O)CNC(=O)[C@H](CC(N)=O)NC(=O)[C@H](CC(N)=O)NC(=O)[C@H](Cc1ccc(O)cc1)NC(=O)[C@@H](NC(=O)[C@H](CCCNC(=N)N)NC(=O)[C@H](CS)NC(=O)[C@H](CCCNC(=N)N)NC(=O)[C@H](Cc1c[nH]cn1)NC(=O)[C@H](CCCCN)NC(=O)[C@H](CCCCN)NC(=O)[C@H](CCCNC(=N)N)NC(=O)[C@@H](N)CCCCN)C(C)C)[C@@H](C)O)C(=O)N[C@@H](Cc1ccc(O)cc1)C(=O)N[C@@H](CCCNC(=N)N)C(=O)N[C@@H](Cc1c[nH]c2ccccc12)C(=O)N[C@@H](CS)C(=O)O [synthetic Bactofensin LS1] (H-KRKKHRCRVYNNGMPTGMYRWC-OH; N-terminus assumed)
E. coli strains
  concentration that did not inhibit (MIC50 assay): > 50 µM
E. sakazakii strains
  concentration that did not inhibit (MIC50 assay): > 50 µM
S. aureus DPC5246
  MIC50 (concentration sufficient to inhibit growth by 50%): 5 µM (≈ 13.9 µg/mL)
[1]
  MIC50 (concentration sufficient to inhibit growth by 50%): 5 µM (≈ 13.9 µg/mL)

## Bactofensin LS1: 22 aa cationic class II antimicrobial peptide of SEQ ID NO: 2 purified from L. salivarius DPC6502 (KRKKHRCRVYNNGMPTGMYRWC; disulfide 7-22; listed as Lactobacillus salivarius)
Listeria
  antimicrobial activity: active
L. salivarius UCC118
  inhibition of closely related strains: inhibits
Staphylococcus aureus
  antimicrobial activity: active
[2]
  antimicrobial activity: active

## lacticin 3147
[3]
  MIC50: 7 to 8 µM
